From patent publication US20200331950A1, “SGLTS INHIBITOR AND APPLICATION THEREOF” (SHANDONG DANHONG PHARMACEUTICAL CO., LTD., priority 2018, published 2020)
Marks after values point to notes of the source that are not given here.

Columns and labels:
SD rats = test: Oral glucose tolerance test (OGTT) in rats, second time; type: in vivo; settings: second study, male SD rats, 10 mg/kg single intragastric administration
Experimental: Study on the In Vivo Efficacy of Oral Glucose Tolerance Test (OGTT) in Rats for the Second Time:
The experimental animals were allowed to adapt to the environment in the animal room for one week after they arrived.
The animals fasted in the metabolic cage for 18 hours, then were given drugs or vehicle (2 ml/kg) according to the above table, and subsequently were immediately given 50% glucose solution (2 g/kg, 4 ml/kg).
2 hours after the administration of glucose solution, feed intake was restored. Blood samples were taken at 0 min, 15 min, 30 min, 45 min, 60 min and 120 min respectively, and urine samples were collected at 0-24 h to test blood glucose, urine glucose (mg/200 g) and urine volume respectively.
All values are represented as averages. Statistical analysis was performed using Graphpad Prism 6 one-way analysis of variance and Tukey's multiple comparison test. P value of less than 0.05 is considered statistically significant.

[1] = In vivo pharmacokinetics in Beagle dogs; settings: male Beagle dogs
Description: Study on the In Vivo Pharmacokinetics in Beagle Dogs
The purpose of the experiment: Male beagle (Beagle) dogs were used as test animals and were given a single administration to determine the plasma concentration of the compound and evaluate the pharmacokinetic behavior.
Experimental method: Six male Beagle dogs were divided into 2 groups, with 3 dogs in an intravenous injection group and 3 dogs in an oral administration group. In the intravenous injection group, the test compound was mixed with an appropriate amount of vehicle (20% polyethylene glycol-400 (PEG400)/10% polyethylene glycol-15 hydroxy stearate (available from solutol)/70% water), then vortexed and sonicated to prepare 1 mg/mL clear solution, which was filtered by microporous membrane. In the oral administration group, 20% polyethylene glycol-400 (PEG400)/10% polyethylene glycol-15 hydroxy stearate (available from solutol)/70% water was used as a vehicle and mixed with the test compound, then vortexed and sonicated to prepare 1 mg/mL clear solution. The dogs were given intravenous administration at a dose of 1 mg/kg or oral administration at a dose of 2 mg/kg. Whole blood was collected at a certain period of time to prepare the plasma. The drug concentration of the plasma was analyzed by LC-MS/MS method, and the pharmacokinetic parameters were calculated using Phoenix WinNonlin software (Pharsight Company, USA).

clearance ([1]; dog, plasma, intravenous 1 mg/kg or oral 2 mg/kg, read-out: Cl (clearance rate)): 6.9 mL/min/kg
half-life ([1]; dog, plasma, intravenous 1 mg/kg or oral 2 mg/kg, read-out: T1/2 (half-life) (converted)): 2.4 h
Vd ([1]; dog, plasma, intravenous 1 mg/kg or oral 2 mg/kg, read-out: Vdss (distribution volume)): 1.49 L/kg
bioavailability ([1]; dog, plasma, intravenous 1 mg/kg, oral 2 mg/kg, read-out: F % (oral bioavailability)): 82%
Cmax ([1]; dog, single administration, intravenous 1 mg/kg or oral 2 mg/kg, plasma): 1290 nM
Oral DNAUC (AUCPO/Dose) ([1]; oral 2 mg/kg): 4051 nM · h/mpk
SMILES: CCc1ccc([C@@H]2O[C@H](SC)[C@@H](O)[C@H](O)[C@H]2O)cc1Cc1ccc(C2=CCC(F)(F)CC2)cc1 [WXD010]
OGTT blood glucose level AUC0-2 hr (SD rats; glucose 2 g/kg): 720 mmol/L/min
Urine glucose level (SD rats; urine 0-24 h): 2118.7**** mg/200 g, BW
Urine volume (SD rats; urine 0-24 h): 20.0**** mL/200 g, BW
